Data published in patent US11952384B2, “Anti-tumor compound and preparation method and use thereof” (DUALITY BIOLOGICS (SUZHOU) CO., LTD., priority 2020, dated 2024).

Key:
MDA-MB-231 cells = assay: Inhibition of in vitro proliferation of tumor cells by compounds (CTG, 6 days); type: cell-based; settings: Homo sapiens, MDA-MB-231, 144 h, read-out: MDA-MB-231 IC50 (nM)
Method: To test the inhibitory activity of the pharmaceutical compounds on the in vitro proliferation of NCI-N87, JIMT-1 and MBA-MB-231 tumor cells. The cells were treated with compounds at different concentrations in vitro, and after 6 days of culture, the proliferation of cells was detected using CTG (CellTiter-Glo® Luminescent Cell Viability Assay, Promega, Cat. No. G7558) reagents, and the in vitro activity of the compounds was evaluated according to the IC50 value. • 1. Culturing of cells: NCI-N87/JIMT-1/MBA-MB-231 cells were cultured in RPMI-1640 medium containing 10% FBS. • 2. Preparation of cells: NCI-N87/JIMT-1/MBA-MB-231 cells in logarithmic phase were taken, washed with PBS once, and digested with 2-3 mL of trypsin for 2-3 min. After the cells were digested completely, 10-15 mL of cell culture was added to elute the digested cells. The eluate was centrifuged at 1000 rpm for 5 min, and the supernatant was discarded. The resulting cells were resuspended in 10-20 mL of cell culture to obtain a single cell suspension. • 3. Cell plating: the NCI-N87/JIMT-1/MBA-MB-231 single cell suspension was mixed well and adjusted to a viable cell density of 6×10^4 cells/mL with cell culture. The cell suspension with the adjusted density was mixed well and added to a 96-well cell culture plate at 50 μL/well. The culture plate was incubated in an incubator for 18 h (37° C., 5% CO2). • 4. Preparation of compounds: the compounds were dissolved in DMSO to obtain stock solutions at an initial concentration of 10 mM. There were 8 concentrations in total for the small molecule compounds: 300 nM, 100 nM, 30 nM, 10 nM, 3 nM, 1 nM, 0.3 nM, and 0.1 nM. • 5. Sample adding: the prepared samples to be detected at different concentrations were added to the culture plate, and two duplicate wells were set for each sample. The culture plate was incubated in an incubator for 6 days (37° C., 5% CO2). • 6. Color developing: the 96-well cell culture plate was taken out, added with the CTG reagent at 50 μL/well, and incubated at room temperature for 10 min. • 7. Plate reading: the 96-well cell culture plate was taken out, placed in a microplate reader, and measured for the chemiluminescence using the microplate reader. Data analysis: data were processed and analyzed using Microsoft Excel and Graphpad Prism 5.

JIMT-1 cells = assay: as above; type: cell-based; settings: Homo sapiens, JIMT-1, 144 h, read-out: JIMT-1 IC50 (nM)
Method: (§1) To test the inhibitory activity of the pharmaceutical compounds on the in vitro proliferation of NCI-N87, JIMT-1 and MBA-MB-231 tumor cells. The cells were treated with the compounds at different concentrations in vitro, and after 6 days of culture, the proliferation of cells was detected using the CTG (CellTiter-Glo® Luminescent Cell Viability Assay, Promega, Cat. No. G7558) reagent, and the in vitro activity of the compounds was evaluated according to the IC50 value.
(§2) In the following, the test for the inhibition of the in vitro proliferation of NCI-N87 cells was taken as an example to illustrate the method of the present application for testing the inhibitory activity of the compounds of the present application on the in vitro proliferation of tumor cells. The method was also applicable to, but not limited to, the test for the inhibitory activity on the in vitro proliferation of other tumor cells. • 1. Culturing of cells: NCI-N87 cells were cultured in RPMI-1640 medium containing 10% FBS. • 2. Preparation of cells: NCI-N87 cells in logarithmic phase were taken, washed with PBS once, and digested with 2-3 mL of trypsin for 2-3 min. After the cells were digested completely, 10-15 mL of cell culture was added to elute the digested cells. The eluate was centrifuged at 1000 rpm for 5 min, and the supernatant was discarded. The resulting cells were resuspended in 10-20 mL of cell culture to obtain a single cell suspension. • 3. Cell plating: the NCI-N87 single cell suspension was mixed well and adjusted to a viable cell density of 6×10^4 cells/mL with cell culture. The cell suspension with the adjusted density was mixed well and added to a 96-well cell culture plate at 50 μL/well. The culture plate was incubated in an incubator for 18 h (37° C., 5% CO2). • 4. Preparation of compounds: the compounds were dissolved in DMSO to obtain stock solutions at an initial concentration of 10 mM. There were 8 concentrations in total for the small molecule compounds: 300 nM, 100 nM, 30 nM, 10 nM, 3 nM, 1 nM, 0.3 nM, and 0.1 nM. • 5. Sample adding: the prepared samples to be detected at different concentrations were added to the culture plate, and two duplicate wells were set for each sample. The culture plate was incubated in an incubator for 6 days (37° C., 5% CO2). • 6. Color developing: the 96-well cell culture plate was taken out, added with the CTG reagent at 50 μL/well, and incubated at room temperature for 10 min. • 7. Plate reading: the 96-well cell culture plate was taken out, placed in a microplate reader, and measured for the chemiluminescence using the microplate reader. Data Analysis
(§3) Data were processed and analyzed using Microsoft Excel and Graphpad Prism 5.
(§4) To test the inhibitory activity of the pharmaceutical compounds on the in vitro proliferation of NCI-N87, JIMT-1 and MBA-MB-231 tumor cells. The cells were treated with compounds at different concentrations in vitro, and after 6 days of culture, the proliferation of cells was detected using CTG (CellTiter-Glo® Luminescent Cell Viability Assay, Promega, Cat. No. G7558) reagents, and the in vitro activity of the compounds was evaluated according to the IC50 value. • 1. Culturing of cells: NCI-N87/JIMT-1/MBA-MB-231 cells were cultured in RPMI-1640 medium containing 10% FBS. • 2. Preparation of cells: NCI-N87/JIMT-1/MBA-MB-231 cells in logarithmic phase were taken, washed with PBS once, and digested with 2-3 mL of trypsin for 2-3 min. After the cells were digested completely, 10-15 mL of cell culture was added to elute the digested cells. The eluate was centrifuged at 1000 rpm for 5 min, and the supernatant was discarded. The resulting cells were resuspended in 10-20 mL of cell culture to obtain a single cell suspension. • 3. Cell plating: the NCI-N87/JIMT-1/MBA-MB-231 single cell suspension was mixed well and adjusted to a viable cell density of 6×10^4 cells/mL with cell culture. […]

P-gp = biological target: T1, P-gp (Homo sapiens, UniProt P08183); assay: Study on transporter substrates in Caco-2 cell model; type: in vitro ADME; settings: Caco-2 cell model
T1 construct: endogenous in cells; host or cells: Caco-2
Method: The resistance of each well was recorded. […] 2. […] The plate was vortexed for 10 min. The samples were centrifuged. […] HBSS was added to the basolateral compartment. […] 3. Data Analysis
Data were calculated using Microsoft Excel.

BCRP = biological target: T2, BCRP (Homo sapiens, UniProt Q9UNQ0); assay: as above
T2 sequence (Q9UNQ0 1-655): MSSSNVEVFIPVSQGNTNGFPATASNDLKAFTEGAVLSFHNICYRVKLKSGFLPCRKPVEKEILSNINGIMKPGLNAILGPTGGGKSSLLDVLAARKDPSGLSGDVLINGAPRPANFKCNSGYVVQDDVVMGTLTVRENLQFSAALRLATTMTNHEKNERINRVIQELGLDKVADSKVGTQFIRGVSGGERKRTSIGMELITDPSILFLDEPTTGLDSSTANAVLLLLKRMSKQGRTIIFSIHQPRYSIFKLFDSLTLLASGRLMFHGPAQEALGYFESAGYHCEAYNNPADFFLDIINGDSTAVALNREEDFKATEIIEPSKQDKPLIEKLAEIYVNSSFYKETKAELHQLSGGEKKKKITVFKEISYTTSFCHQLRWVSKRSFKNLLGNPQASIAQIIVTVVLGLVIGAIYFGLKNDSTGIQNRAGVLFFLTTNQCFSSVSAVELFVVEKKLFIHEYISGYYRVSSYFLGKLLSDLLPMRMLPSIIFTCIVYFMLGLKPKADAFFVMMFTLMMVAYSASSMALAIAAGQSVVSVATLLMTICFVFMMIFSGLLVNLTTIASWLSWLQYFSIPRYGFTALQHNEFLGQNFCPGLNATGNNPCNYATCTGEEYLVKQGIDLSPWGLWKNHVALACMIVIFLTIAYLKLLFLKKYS
Method: To investigate whether the compounds of the present invention is a substrate for efflux transporters P-gp and BCRP in a Caco-2 cell model, thereby providing preclinical basis for analyzing the drug-drug interaction in pharmacokinetics.
• 1) Cell culture medium was added to each well of the Transwell. The HTS Transwell plate was incubated under conditions of 37° C. and 5% CO2 for 1 h prior to cell inoculation. • 2) Caco-2 cells were diluted with culture medium and the cell suspension was dispensed into filter wells of the 96-well HTS Transwell plate. […] The cell culture medium was changed periodically. • 3) Monolayer cell resistance was measured using the Millicell Epithelial Volt-Ohm detection system. The resistance of each well was recorded. After all wells were measured, the Transwell plate was put back into the incubator. TEER of each well was calculated according to the formula. The TEER value of each well should be greater than 230 ohm·cm^2. […] Preparation for Transporter Test • 1) The Caco-2 plate was taken out from the incubator. The monolayer cells were washed with pre-heated HBSS twice. The plate was then incubated at 37° C. for 30 min. • 2) Stock solutions of the compounds were prepared in DMSO and diluted with HBSS to obtain working solutions. Digoxin was used as a reference substrate for P-gp and rosuvastatin was used as a reference substrate for BCRP. Propranolol was used as a high permeability marker. • 3) The working solution (without inhibitor) was added to the Transwell insert (apical compartment) to determine the rate of drug transport in the apical to basolateral direction. The transfer buffer was added to the wells in the receiver plate (basolateral compartment). The working solution (without inhibitor) was added to the receiver plate wells (basolateral compartment) to determine the rate of drug transport in the basolateral to apical direction. The Transwell insert (apical compartment) was filled with the transport buffer. PSC833 was added to the apical and basolateral compartments to determine the rate of drug transport in the presence of P-gp inhibitors. • 4) The sample was transferred from the working solution to the quenching solution, and a sample with a time of 0 was prepared. The Transwell plate was incubated under conditions of 37° C. and 5% CO2 for 2 h. • 5) At the end of the transport cycle, the samples were transferred from the apical and basolateral wells into a new 96-well plate. Cold acetonitrile or methanol containing the appropriate internal standard (IS) was added to each well of the plate. The plate was vortexed for 10 min. The samples were centrifuged. The supernatant of an aliquot was mixed with an appropriate amount of ultrapure water (depending on the LC-MS/MS signal response and peak shape) prior to the LC-MS/MS analysis. • 6) The stock solution of lucifer yellow in DMSO was prepared and diluted with HBSS to determine the amount of lucifer yellow leakage after a 2-hour transport period. The lucifer yellow solution was added to the apical compartment. HBSS was added to the basolateral compartment. The plate was incubated at 37° C. for 30 min, and a certain amount of the solution was directly taken from the apical and basolateral wells and transferred to a new 96-well plate. The lucifer yellow fluorescence was measured in a fluorescence plate reader with 485 nm excitation and 530 nm emission (to monitor monolayer integrity).
Data were calculated using Microsoft Excel. The percentage of the compound remaining at each time point was estimated by determining the peak area ratio from the extracted ion chromatogram.
For drug transport analysis in the Caco-2 cell model, the apparent permeability coefficient (Papp) can be calculated according to the following formula, in cm/s:
[formula] • wherein the concentration C is in nM, the volume V is in μL, the time T is in s, and the area S is in cm^2.
The recovery rate is calculated according to the following formula:

NCI-N87 cells = assay: Inhibition of in vitro proliferation of tumor cells by compounds (CTG, 6 days); type: cell-based; settings: Homo sapiens, NCI-N87, 144 h, read-out: NCI-N87 IC50 (nM)
Method: as §1, §2, §3, §4

T1 sequence (P08183 whole entry): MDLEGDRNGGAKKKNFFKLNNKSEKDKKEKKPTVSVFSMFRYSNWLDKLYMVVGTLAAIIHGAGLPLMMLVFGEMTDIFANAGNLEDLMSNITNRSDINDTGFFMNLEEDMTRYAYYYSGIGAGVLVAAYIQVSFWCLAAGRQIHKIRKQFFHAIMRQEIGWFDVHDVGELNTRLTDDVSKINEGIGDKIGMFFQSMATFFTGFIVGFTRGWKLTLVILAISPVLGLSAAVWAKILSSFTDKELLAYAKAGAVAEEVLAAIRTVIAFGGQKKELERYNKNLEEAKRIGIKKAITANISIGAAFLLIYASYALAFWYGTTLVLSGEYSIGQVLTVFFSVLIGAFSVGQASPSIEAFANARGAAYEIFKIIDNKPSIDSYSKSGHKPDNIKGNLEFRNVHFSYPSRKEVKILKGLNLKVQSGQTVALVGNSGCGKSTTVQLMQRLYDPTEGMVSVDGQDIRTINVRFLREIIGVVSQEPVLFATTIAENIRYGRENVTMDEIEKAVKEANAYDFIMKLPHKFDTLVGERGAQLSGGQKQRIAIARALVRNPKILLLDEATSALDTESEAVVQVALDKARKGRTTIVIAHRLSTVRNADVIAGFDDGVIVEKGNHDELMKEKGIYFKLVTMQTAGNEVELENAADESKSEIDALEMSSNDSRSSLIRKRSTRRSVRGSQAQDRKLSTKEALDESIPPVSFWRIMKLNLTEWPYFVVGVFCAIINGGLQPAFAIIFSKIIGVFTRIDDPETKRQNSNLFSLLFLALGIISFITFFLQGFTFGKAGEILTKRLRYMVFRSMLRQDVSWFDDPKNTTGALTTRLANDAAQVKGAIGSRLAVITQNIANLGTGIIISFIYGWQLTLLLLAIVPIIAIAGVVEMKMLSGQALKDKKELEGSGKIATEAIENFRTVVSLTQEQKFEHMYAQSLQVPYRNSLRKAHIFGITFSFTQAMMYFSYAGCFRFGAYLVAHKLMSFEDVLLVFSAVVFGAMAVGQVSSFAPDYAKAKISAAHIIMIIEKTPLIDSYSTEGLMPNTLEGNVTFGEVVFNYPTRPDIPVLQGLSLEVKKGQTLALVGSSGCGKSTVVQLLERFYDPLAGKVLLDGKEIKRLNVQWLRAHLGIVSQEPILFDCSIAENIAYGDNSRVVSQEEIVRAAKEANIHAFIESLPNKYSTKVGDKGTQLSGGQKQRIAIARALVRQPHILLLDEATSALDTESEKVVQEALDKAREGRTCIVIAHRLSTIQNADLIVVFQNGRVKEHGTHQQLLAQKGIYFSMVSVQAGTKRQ

| Structure (SMILES) | IC50 (MDA-MB-231 cells) | IC50 (JIMT-1 cells) | also measured |
| --- | --- | --- | --- |
| CC[C@@]1(O)C(=O)OCc2c1cc1n(c2=O)Cc2c-1nc1cc(F)c(C)c3c1c2[C@@H](NC(=O)c1ccc(O)cn1)CC3 [P-II-24, N-((1S,9S)-9-ethyl-5-fluoro-9-hydroxy-4-methyl-10,13-dioxo-2,3,9,10,13,15-hexahydro-1H,12H-benzo[de]pyrano[3′,4′:6,7]indolizino[1,2-b]quinolin-1-yl)-5-hydroxypicolinamide] | 8.5 nM | 20.8 nM | – |
| CC[C@@]1(O)C(=O)OCc2c1cc1n(c2=O)Cc2c-1nc1cc(F)c(C)c3c1c2[C@@H](NC(=O)C[C@H](C)N)CC3 [P-III-28, (S)-3-amino-N-((1S,9S)-9-ethyl-5-fluoro-9-hydroxy-4-methyl-10,13-dioxo-2,3,9,10,13,15-hexahydro-1H,12H-benzo[de]pyrano[3′,4′:6,7]indolizino[1,2-b]quinolin-1-yl)butanamide] | 1.2 nM | – | – |
| CC[C@@]1(O)C(=O)OCc2c1cc1n(c2=O)Cc2c-1nc1cc(F)c(C)c3c1c2[C@@H](NC(=O)CO)CC3 [Dxd, reference compound] | – | – | P-gp substrate (P-gp): not a transporter P-gp substrate; Recovery rate (%) AP-BL (BCRP; Caco-2, KO143 +): 76.51%; Recovery rate (%) BL-AP (BCRP; Caco-2, KO143 +): 74.87%; Efflux ratio (BCRP; Caco-2, KO143 −): 74.03; Recovery rate (%) AP-BL (BCRP; Caco-2, KO143 −): 57.76%; Recovery rate (%) BL-AP (BCRP; Caco-2, KO143 −): 56.20%; Papp (A-B) (10^−6, cm/s) (BCRP; Caco-2, KO143 −, 2 h): 0.07 10^−6, cm/s; Papp (B-A) (10^−6, cm/s) (BCRP; Caco-2, KO143 −, 2 h): 4.82 10^−6, cm/s; BCRP substrate (BCRP; Caco-2 cell model, from rate of change of efflux ratio): transporter BCRP substrate and Yes |
| CC[C@@]1(O)C(=O)OCc2c1cc1n(c2=O)Cc2c-1nc1cc(F)c(C)c3c1c2[C@@H](NC(=O)CS)CC3 [P-III-1, N-((1S,9S)-9-ethyl-5-fluoro-9-hydroxy-4-methyl-10,13-dioxo-2,3,9,10,13,15-hexahydro-1H,12H-benzo[de]pyrano[3′,4′:6,7]indolizino[1,2-b]quinolin-1-yl)-2-mercaptoacetamide] | 28.9 nM | – | – |
| CC[C@@]1(O)C(=O)OCc2c1cc1n(c2=O)Cc2c-1nc1cc(F)c(C)c3c1c2[C@@H](NC(=O)CC(C)(C)O)CC3 [P-III-21, N-((1S,9S)-9-ethyl-5-fluoro-9-hydroxy-4-methyl-10,13-dioxo-2,3,9,10,13,15-hexahydro-1H,12H-benzo[de]pyrano[3′,4′:6,7]indolizino[1,2-b]quinolin-1-yl)-3-hydroxy-3-methylbutanamide] | 2.88 nM | 2.87 nM | IC50 (NCI-N87 cells): 4.75 nM |
| CC[C@@]1(O)C(=O)OCc2c1cc1n(c2=O)Cc2c-1nc1cc(F)c(C)c3c1c2[C@@H](NC(=O)C[C@@H](N)CO)CC3 [P-III-29, (R)-3-amino-N-((1S,9S)-9-ethyl-5-fluoro-9-hydroxy-4-methyl-10,13-dioxo-2,3,9,10,13,15-hexahydro-1H,12H-benzo[de]pyrano[3′,4′:6,7]indolizino[1,2-b]quinolin-1-yl)-4-hydroxybutanamide] | 8.6 nM | 16.7 nM | – |
| CC[C@@]1(O)C(=O)OCc2c1cc1n(c2=O)Cc2c-1nc1cc(F)c(C)c3c1c2[C@@H](NC(=O)c1ccc(O)cc1)CC3 [P-II-23, N-((1S,9S)-9-ethyl-5-fluoro-9-hydroxy-4-methyl-10,13-dioxo-2,3,9,10,13,15-hexahydro-1H,12H-benzo[de]pyrano[3′,4′:6,7]indolizino[1,2-b]quinolin-1-yl)-4-hydroxybenzamide-1-carboxamide] | 7.7 nM | – | – |
| CC[C@@]1(O)C(=O)OCc2c1cc1n(c2=O)Cc2c-1nc1cc(F)c(C)c3c1c2[C@@H](NC(=O)CCNC)CC3 [P-III-9, N-((1S,9S)-9-ethyl-5-fluoro-9-hydroxy-4-methyl-10,13-dioxo-2,3,9,10,13,15-hexahydro-1H,12H-benzo[de]pyrano[3′,4′:6,7]indolizino[1,2-b]quinolin-1-yl)-3-methylaminopropanamide] | 28.9 nM | – | – |
